The test system of experiment [1] is solubilizing enzyme of HB-EGF. The experiment is described as follows: Inhibition of TPA-stimulated release of HB-EGF from HT-1080 transfectant expressing HB-EGF/alkaline phosphatase fusion protein. The conditions noted are these: HT-1080 HB-EGF-AP transfectant, TPA 60 nM for 60 min, AP activity in conditioned medium (OD405). It counts as cell-based, human. As for the experimental part: Human fibrosarcoma HT-1080 stable transfectant expressing fusion protein of HB-EGF and human placental alkaline phosphatase (AP) were used for following experiments.
The cultured transfectant was treated with Trypsin-EDTA solution, and suspended in Minimum Essential Medium (without phenol red; supplemented with 10% heat-inactivated fetal calf serum; MEM) at the concentration of 1×10^5 cells/ml. Each 0.2 ml of the cell suspension was dispensed into individual wells of 96 well microplate, and incubated overnight in the CO2 incubator (37° C.). After the incubation, the conditioned medium was removed, and the wells were washed once with 0.2 ml of phosphate buffered saline. The cells were treated with 0.1 ml of compound solution [compound solutions in dimethylsulfoxide (DMSO) were diluted 100 times with MEM] for 30 min at 37° C. Then the compound solutions were removed, and cells were treated with 0.2 ml of TPA solution (120 μM) of stock solution was diluted to 60 nM with MEM) containing same concentration of the compound for 60 min at 37° C. The cells treated same procedure without compound were used as control.
After these treatments, each 0.1 ml of conditioned medium was transferred to individual wells of new 96 well microplate and incubated at 65° C. for 10 min to inactivate endogenous alkaline phosphatase. One hundred microliter of substrate solution (1 mg/ml of p-nitrophenyl phosphate in 0.01% magnesium chloride/1 M diethanolamine) for AP was added to each well and incubated for 120 min at room temperature in the dark. The OD405 of each well was measured with microplate reader. The IC50 values of the compounds were calculated from the concentration-inhibition curves.

Experiment [2] has as its system epidermal hyperplasia induced by TPA. Kind of experiment: TPA-induced epidermal hyperplasia on dorsal skin of mice. It counts as in vivo, male BALB/c mice. The conditions noted are these: ED50; topical in acetone at 1 minute, 24 and 48 hours after TPA; epidermal thickness 72 hours after TPA. As to the method:
After backs of male BALB/c mice were shaved, 20 micro 1 of TPA-acetone solution (50 μM) was applied to the dorsal skin surface in an area of ca. 1 cm^2. A volume of 20 micro 1 of test compound-acetone solution was applied to the same area a minute, 24 hours and 48 hours after TPA application (the treated group). In the non-treated group, acetone was applied instead of the test compound. In the control group, acetone was applied instead of TPA and the test compound. The mice were sacrificed, and the skin tissues treated with TPA or the test compound were excised 72 hours after TPA application. Then the tissues were fixed with 10% formalin and embedded in paraffin according to the conventional method. The vertical sections including the center of the TPA- or the test compound-treated area were prepared and they were stained by hematoxylin-eosin. The epidermal thickness was measured using an ocular microscope. The amount of the test compound required for achieving 50% inhibition against the mean epidermal thickness of the non-treated group (ED50) was calculated, wherein the mean epidermal thickness of the non-treated group was 100% and that of the control group was 0%.

Each structure is given as a SMILES string. Where two headings read alike, the source gives them in different places.

The term IC50 denotes the midpoint of a concentration-inhibition curve.

Consider `O=C(NO)C1Cc2nccnc2CN1S(=O)(=O)c1ccc(OC(F)(F)F)cc1` (single isomer, unassigned; (+)) [the compound(17), (+)-N-Hydroxy-6-(4-trifluoromethoxybenzenesulfonyl)-5,6,7,8-tetrahydropyrido[3,4-b]pyrazine-7-carboxamide], for which the IC50 in experiment [1] (read-out: IC50) is 330 nM. Moreover, the “Amount of test compound required for 50% suppression of epidermal hyperplasia” value in experiment [2] was 48 10^−6 g/cm^2.
The matching figures for `CCOCCOc1ccc(S(=O)(=O)N2Cc3nccnc3CC2C(=O)NO)cc1` (single isomer, unassigned; (+)) [the compound(27), (+)-N-Hydroxy-6-[4-(2-ethoxyethoxy)benzenesulfonyl]-5,6,7,8-tetrahydropyrido[3,4-b]pyrazine-7-carboxamide]: 36 nM and 58 10^−6 g/cm^2.
The matching figures for `O=C(NO)C1Cc2nccnc2CN1S(=O)(=O)c1ccccc1` (single isomer, unassigned; (+)) [the compound(36), (+)-N-Hydroxy-6-benzenesulfonyl-5,6,7,8-tetrahydropyrido[3,4-b]pyrazine-7-carboxamide]: 510 nM and 130 10^−6 g/cm^2.
The matching figures for `O=C(NO)C1Cc2nccnc2CN1S(=O)(=O)c1ccc(F)cc1` (single isomer, unassigned; (+)) [the compound(37), (+)-N-Hydroxy-6-(4-fluorobenzenesulfonyl)-5,6,7,8-tetrahydropyrido[3,4-b]pyrazine-7-carboxamide]: 810 nM and 120 10^−6 g/cm^2.
Take `Nc1ccc(S(=O)(=O)N2Cc3nccnc3CC2C(=O)NO)cc1` (single isomer, unassigned; (+)) [the compound(39), (+)-N-Hydroxy-6-(4-aminobenzenesulfonyl)-5,6,7,8-tetrahydropyrido[3,4-b]pyrazine-7-carboxamide]: in experiment [1] (read-out: IC50), the IC50 was found to be 1800 nM.
`O=C(NO)C1Cc2nccnc2CN1S(=O)(=O)c1ccc(-c2ccccc2)cc1` (single isomer, unassigned; (+)) [the compound(40), (+)-N-Hydroxy-6-(biphenyl-4-sulfonyl)-5,6,7,8-tetrahydropyrido[3,4-b]pyrazine-7-carboxamide]: the IC50 in experiment [1] (read-out: IC50) was found to be 1500 nM. The “Amount of test compound required for 50% suppression of epidermal hyperplasia” value in experiment [2] is reported as 20 10^−6 g/cm^2.
`O=C(NO)C1Cc2nccnc2CN1S(=O)(=O)c1ccc(O)cc1` (single isomer, unassigned; (+)) [the compound(41), (+)-N-Hydroxy-6-(4-hydroxybenzenesulfonyl)-5,6,7,8-tetrahydropyrido[3,4-b]pyrazine-7-carboxamide]: the half-maximal inhibitory concentration (IC50) in experiment [1] (read-out: IC50) amounted to 300 nM.
On the same count and under the same terms, the result for `CC(=O)c1ccc(S(=O)(=O)N2Cc3nccnc3CC2C(=O)NO)cc1` (single isomer, unassigned; (+)) [the compound(42), (+)-N-Hydroxy-6-(4-acetylbenzenesulfonyl)-5,6,7,8-tetrahydropyrido[3,4-b]pyrazine-7-carboxamide] reads 2200 nM; that for `CCCc1ccc(S(=O)(=O)N2Cc3nccnc3CC2C(=O)NO)cc1` (single isomer, unassigned; (+)) [the compound(43), (+)-N-Hydroxy-6-(4-propylbenzenesulfonyl)-5,6,7,8-tetrahydropyrido[3,4-b]pyrazine-7-carboxamide], 1900 nM.
On the same count and under the same terms, the value for `C=Cc1ccc(S(=O)(=O)N2Cc3nccnc3CC2C(=O)NO)cc1` (single isomer, unassigned; (+)) [the compound(44), (+)-N-Hydroxy-6-(4-vinylbenzenesulfonyl)-5,6,7,8-tetrahydropyrido[3,4-b]pyrazine-7-carboxamide] was 1100 nM.
Turning to `O=C(NO)C1Cc2nccnc2CN1S(=O)(=O)c1ccc(OCCCc2ccccc2)cc1` (single isomer, unassigned; (+)) [the compound(45), (+)-N-Hydroxy-6-[4-(3-phenylpropoxy)benzenesulfonyl]-5,6,7,8-tetrahydropyrido[3,4-b]pyrazine-7-carboxamide], the IC50 in experiment [1] came out at 630 nM.
In turn, `O=C(NO)C1Cc2nccnc2CN1S(=O)(=O)c1cccs1` (single isomer, unassigned; (+)) [the compound(46), (+)-N-Hydroxy-6-[(thiophen-2-yl)sulfonyl]-5,6,7,8-tetrahydropyrido[3,4-b]pyrazine-7-carboxamide] yielded a half-maximal inhibitory concentration (IC50) in experiment [1] of 960 nM. For the same compound, in experiment [2], the “Amount of test compound required for 50% suppression of epidermal hyperplasia” value was 69 10^−6 g/cm^2.
As for `O=C(NO)C1Cc2nccnc2CN1S(=O)(=O)/C=C/c1ccccc1` (single isomer, unassigned; (+)) [the compound(47), (+)-N-Hydroxy-6-(2-trans-phenylethenesulfonyl)-5,6,7,8-tetrahydropyrido[3,4-b]pyrazine-7-carboxamide], the IC50 in experiment [1] (read-out: IC50) worked out at 1900 nM.
On the same count and under the same terms, the result for `CS(=O)(=O)CCCOc1ccc(S(=O)(=O)N2Cc3nccnc3CC2C(=O)NO)cc1` (single isomer, unassigned; (+)) [the compound(48), (+)-N-Hydroxy-6-[4-(3-methansulfonylpropoxy)benzenesulfonyl]-5,6,7,8-tetrahydropyrido[3,4-b]pyrazine-7-carboxamide] reads 1800 nM; that for `CNC(=O)C(NC(=O)C(CC(C)C)C(C)C(=O)NO)c1ccccc1` [the compound a, [4-(N-hydroxyamino)-2 (R)-isobutyl-3-methylsuccinyl]-L-phenylglycine-N-methylamide, reference compound], 430 nM.
On the same count and under the same terms, the result for `CNC(=O)C(Cc1cccc2c1CCCC2)NC(=O)C(CC(C)C)C(C)C(=O)NO` [the compound b, [4-(N-hydroxyamino)-2 (R)-isobutyl-3-methylsuccinyl]-L-3-(5,6,7,8-tetrahydro-1-naphtyl)alanine-N-methylamide, reference compound] reads 120 nM.
On to `CNC(=O)[C@@H](NC(=O)[C@H](CC(C)C)C(CN1CCc2ccccc2C1)C(=O)NO)c1ccccc1` (stereo partly drawn) [the compound c, [4-(N-hydroxyamino)-2 (R)-isobutyl-3-(1,2,3,4-tetrahydro-isoquinolylmethyl)succinyl]-L-phenylglycine —N-methylamide, reference compound], for which the IC50 in experiment [1] (read-out: IC50) came to 54 nM. In experiment [2], the “Amount of test compound required for 50% suppression of epidermal hyperplasia” value was 190 10^−6 g/cm^2.
As for `CNC(=O)C(Cc1ccccc1)NC(=O)C(C(C)C)C(C)C(=O)NO` [the compound e, 4-(N-hydroxyamino)-2 (R)-isopropyl-3-methylsuccinyl-L-phenylalanine-N-methylamide, reference compound], the IC50 in experiment [1] (read-out: IC50) turned out to be 100 nM.
Take `CNC(=O)C(Cc1ccccc1)NC(=O)C(CC(C)C)C(C)C(=O)NO` [the compound f, 4-(N-hydroxyamino)-2 (R)-isobutyl-3-methylsuccinyl-L-phenylalanine-N-methylamide, reference compound]: the IC50 in experiment [1] (read-out: IC50) was determined as 100 nM.
On the same count and under the same terms, the result for `COc1ccc(S(=O)(=O)N2C(C)c3nccnc3C(C)C2C(=O)NO)cc1` (stereo not drawn) [the compound(49), 7,8-cis-N-Hydroxy-5,8-dimethyl-6-(4-methoxybenzenesulfonyl)-5,6,7,8-tetrahydropyrido[3,4-b]pyrazine-7-carboxamide] reads 5600 nM.

Source of the values: patent publication US20030229113A1, “Keratinocyte growth inhibitors and hydroxamic acid derivatives” (priority 2003, published 2003).
